Reference: US10174002B2, “Pyridine derivatives as CFTR modulators” (NuBridge BioSciences, priority 2015, dated 2019)
Structures can show the parent of a compound that is named as a salt.

Target: T1, ΔF508 mutant CFTR (Homo sapiens, UniProt P13569, DEL508-508)
T1 construct: expressed in transfected cells; host or cells: Fischer rat thyroid (FRT) cells, co-expressing the halide-sensitive YFP-H148Q/I152L
Test: Fluorescence Assay of ΔF508 mutant CFTR activity (halide-sensitive YFP quenching by iodide influx in FRT cells)
Assay type: cell-based
Parameters: key: fold of mean activity with forskolin alone (I− quenching rate)
Conditions: test compounds 20 μM with forskolin 20 μM, 20 min; FRT cells expressing ΔF508-CFTR and YFP-H148Q/I152L, incubated at 27° C. 20-24 h; rate of fluorescence quenching by I−, normalized to mean activity with forskolin alone
Text: The ΔF508 mutant CFTR activities of the CFTR modulators are detected using the Fluorescence Assay developed by Pedemonte (Pedemonte N., et al., Antihypertensive 1,4-dihydropyridines as correctors of the cystic fibrosis transmembrane conductance regulator channel gating defect caused by cystic fibrosis mutations, Mol. Pharmacol., 2005, 68, 1736-1746).
Fischer rat thyroid (FRT) cells, stably transfected with ΔF508 were retransfected with the YFP-H148Q/I152L fluorescent protein. The cells were plated (100,000 cells/well) on black 96-well microplates with clear plastic bottom (Corning Life Sciences, Acton, Mass.).
The 96-well microplates containing FRT cells expressing F508-CFTR and the halide-sensitive YFP were incubated at 27° C. for 20 to 24 h to allow rescue of the mutant protein to the plasma membrane. After incubation, cells were washed with PBS (containing 137 mM NaCl, 2.7 mM KCl, 8.1 mM Na2HPO4, 1.5 mM KH2PO4, 1 mM CaCl2, and 0.5 mM MgCl2) and stimulated for 20 min with forskolin (20 μM) and test compounds (20 μM) in a final volume of 60 μl. Microplates were then transferred to a microplate reader for CFTR activity determination. Each assay consisted of a continuous 14-s fluorescence reading (5 points per second) with 2 s before and 12 s after injection of 165 μl of an iodide-containing solution (PBS with Cl^− replaced by I^−). Final iodide concentration in the wells was 100 mM. […] To determine I^− influx rate, the final 11 s of the data for each well were fitted with an exponential function to extrapolate initial slope. CFTR activity was determined by measuring the rate of fluorescence quenching induced by extracellular addition of I^−. Data are normalized to the mean activity measured in the presence of forskolin alone.

T1 sequence (P13569 with tags, fused parts or gaps DEL508-508): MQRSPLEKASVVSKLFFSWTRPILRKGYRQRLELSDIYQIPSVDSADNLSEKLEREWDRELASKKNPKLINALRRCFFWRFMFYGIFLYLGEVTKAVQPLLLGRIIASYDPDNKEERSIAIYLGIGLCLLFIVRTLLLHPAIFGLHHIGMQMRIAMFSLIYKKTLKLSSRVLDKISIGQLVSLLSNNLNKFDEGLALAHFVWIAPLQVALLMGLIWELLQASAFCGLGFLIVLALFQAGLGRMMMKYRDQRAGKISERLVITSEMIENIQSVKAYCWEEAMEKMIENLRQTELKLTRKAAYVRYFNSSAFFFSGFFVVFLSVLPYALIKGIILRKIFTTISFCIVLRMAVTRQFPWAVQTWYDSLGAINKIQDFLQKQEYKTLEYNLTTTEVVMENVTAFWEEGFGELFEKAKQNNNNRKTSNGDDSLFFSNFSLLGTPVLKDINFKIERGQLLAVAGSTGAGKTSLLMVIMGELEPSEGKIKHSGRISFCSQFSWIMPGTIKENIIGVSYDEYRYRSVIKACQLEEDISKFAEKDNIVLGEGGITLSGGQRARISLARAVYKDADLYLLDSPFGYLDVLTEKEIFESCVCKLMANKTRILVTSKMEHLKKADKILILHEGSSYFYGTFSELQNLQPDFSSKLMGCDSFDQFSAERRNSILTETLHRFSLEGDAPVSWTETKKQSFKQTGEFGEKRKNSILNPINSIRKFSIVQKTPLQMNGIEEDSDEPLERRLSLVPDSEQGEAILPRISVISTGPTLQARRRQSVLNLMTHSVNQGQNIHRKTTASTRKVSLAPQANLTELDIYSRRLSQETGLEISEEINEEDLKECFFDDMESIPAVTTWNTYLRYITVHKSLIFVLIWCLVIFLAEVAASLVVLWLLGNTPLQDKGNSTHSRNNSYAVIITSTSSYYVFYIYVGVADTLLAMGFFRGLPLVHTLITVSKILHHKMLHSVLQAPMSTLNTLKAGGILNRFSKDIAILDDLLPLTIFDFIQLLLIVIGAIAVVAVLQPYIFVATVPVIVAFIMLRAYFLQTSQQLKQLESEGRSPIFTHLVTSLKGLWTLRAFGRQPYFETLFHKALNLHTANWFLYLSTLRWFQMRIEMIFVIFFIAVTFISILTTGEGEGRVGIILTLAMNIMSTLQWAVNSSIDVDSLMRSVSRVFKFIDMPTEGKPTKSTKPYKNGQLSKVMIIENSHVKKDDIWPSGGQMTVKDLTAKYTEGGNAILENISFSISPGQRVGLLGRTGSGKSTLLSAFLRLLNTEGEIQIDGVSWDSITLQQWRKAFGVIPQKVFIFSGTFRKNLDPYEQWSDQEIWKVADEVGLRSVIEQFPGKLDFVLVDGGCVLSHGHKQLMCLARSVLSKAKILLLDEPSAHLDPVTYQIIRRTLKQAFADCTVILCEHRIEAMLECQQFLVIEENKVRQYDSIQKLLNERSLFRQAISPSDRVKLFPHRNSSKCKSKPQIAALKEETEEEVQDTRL

Structure (SMILES) | CFTR Activity
Cl.O=C(Nc1cnccc1OCC1CCNCC1)c1ccc(F)c(-c2c(F)cccc2F)n1 [Example 1, 6-(2,6-difluorophenyl)-5-fluoro-N-(4-(piperidin-4-ylmethoxy)pyridin-3-yl)picolinamide hydrochloride] | 1.4
Cl.O=C(Nc1cnccc1OC1CCNCC1)c1ccc(F)c(-c2c(F)cccc2F)n1 [Example 3, 6-(2,6-difluorophenyl)-5-fluoro-N-(4-(piperidin-4-yloxy)pyridin-3-yl)picolinamide hydrochloride] | 1.6
Cl.O=C(Nc1cnccc1OC1CCNC1)c1ccc(F)c(-c2c(F)cccc2F)n1 (stereo not shown) [Example 4, 6-(2,6-difluorophenyl)-5-fluoro-N-(4-(pyrrolidin-3-yloxy)pyridin-3-yl)picolinamide hydrochloride] | 0.9
Cl.O=C(Nc1cnccc1OC1CCCNC1)c1ccc(F)c(-c2c(F)cccc2F)n1 (stereo not shown) [Example 5, 6-(2,6-difluorophenyl)-5-fluoro-N-(4-(piperidin-3-yloxy)pyridin-3-yl)picolinamide hydrochloride] | 0.5
Cl.O=C(Nc1cnccc1OC1CCCNCC1)c1ccc(F)c(-c2c(F)cccc2F)n1 (stereo not shown) [Example 6, N-(4-(azepan-4-yloxy)pyridin-3-yl)-6-(2,6-difluorophenyl)-5-fluoropicolinamide hydrochloride] | 1.9
Cl.O=C(Nc1cnccc1OCC1CCCNC1)c1ccc(F)c(-c2c(F)cccc2F)n1 (stereo not shown) [Example 7, 6-(2,6-difluorophenyl)-5-fluoro-N-(4-(piperidin-3-ylmethoxy)pyridin-3-yl)picolinamide hydrochloride] | 0.8
Cl.O=C(Nc1cnccc1OCC1CCNC1)c1ccc(F)c(-c2c(F)cccc2F)n1 (stereo not shown) [Example 8, 6-(2,6-difluorophenyl)-5-fluoro-N-(4-(pyrrolidin-3-ylmethoxy)pyridin-3-yl)picolinamide hydrochloride] | 0.5
Cl.NC1CCC(Oc2ccncc2NC(=O)c2ccc(F)c(-c3c(F)cccc3F)n2)CC1 (stereo not shown) [Example 10, N-(4-(((1r,4r)-4-aminocyclohexyl)oxy)pyridin-3-yl)-6-(2,6-difluorophenyl)-5-fluoropicolinamide hydrochloride] | 2.2
Cl.NC1CCCC(Oc2ccncc2NC(=O)c2ccc(F)c(-c3c(F)cccc3F)n2)C1 (stereo not shown) [Example 11, N-(4-((3-aminocyclohexyl)oxy)pyridin-3-yl)-6-(2,6-difluorophenyl)-5-fluoropicolinamide hydrochloride] | 3.1
Cl.NCCCOc1ccncc1NC(=O)c1ccc(F)c(-c2c(F)cccc2F)n1 [Example 12, N-(4-(3-aminopropoxy)pyridin-3-yl)-6-(2,6-difluorophenyl)-5-fluoropicolinamide hydrochloride] | 0.7
CNCCCOc1ccncc1NC(=O)c1ccc(F)c(-c2c(F)cccc2F)n1.Cl [Example 13, 6-(2,6-difluorophenyl)-5-fluoro-N-(4-(3-(methylamino)propoxy)pyridin-3-yl)picolinamide hydrochloride] | 0.6
CN(C)CCCOc1ccncc1NC(=O)c1ccc(F)c(-c2c(F)cccc2F)n1.Cl [Example 14, 6-(2,6-difluorophenyl)-N-(4-(3-(dimethylamino)propoxy)pyridin-3-yl)-5-fluoropicolinamide hydrochloride] | 0.2
Cl.NCCCCOc1ccncc1NC(=O)c1ccc(F)c(-c2c(F)cccc2F)n1 [Example 15, N-(4-(4-aminobutoxy)pyridin-3-yl)-6-(2,6-difluorophenyl)-5-fluoropicolinamide hydrochloride] | 0.7
CNCCCCOc1ccncc1NC(=O)c1ccc(F)c(-c2c(F)cccc2F)n1.Cl [Example 16, 6-(2,6-difluorophenyl)-5-fluoro-N-(4-(4-(methylamino)butoxy)pyridin-3-yl)picolinamide hydrochloride] | 0.6
O=C(Nc1cnccc1OCCCO)c1ccc(F)c(-c2c(F)cccc2F)n1 [Example 17, 6-(2,6-difluorophenyl)-5-fluoro-N-(4-(3-hydroxypropoxy)pyridin-3-yl)picolinamide] | 0.2
CC(O)CCOc1ccncc1NC(=O)c1ccc(F)c(-c2c(F)cccc2F)n1 (stereo not shown) [Example 18, 6-(2,6-difluorophenyl)-5-fluoro-N-(4-(3-hydroxybutoxy)pyridin-3-yl)picolinamide] | 0.1

Structure (SMILES) | CFTR Activity
O=C(Nc1cnccc1OCCCCO)c1ccc(F)c(-c2c(F)cccc2F)n1 [Example 19, 6-(2,6-difluorophenyl)-5-fluoro-N-(4-(4-hydroxybutoxy)pyridin-3-yl)picolinamide] | 0.3
CC(C)(O)CCCOc1ccncc1NC(=O)c1ccc(F)c(-c2c(F)cccc2F)n1 [Example 20, 6-(2,6-difluorophenyl)-5-fluoro-N-(4-((4-hydroxy-4-methylpentyl)oxy)pyridin-3-yl)picolinamide] | 0.1
O=C(Nc1cnccc1OCCC(O)CO)c1ccc(F)c(-c2c(F)cccc2F)n1 (stereo not shown) [Example 21, 6-(2,6-difluorophenyl)-N-(4-(3,4-dihydroxybutoxy)pyridin-3-yl)-5-fluoropicolinamide] | 0.1
O=C(Nc1cnccc1OCC1CCOCC1)c1ccc(F)c(-c2c(F)cccc2F)n1 [Example 22, 6-(2,6-difluorophenyl)-5-fluoro-N-(4-((tetrahydro-2H-pyran-4-yl)methoxy)pyridin-3-yl)picolinamide] | 0.05
Cl.Nc1cc(F)c(-c2c(F)cccc2F)nc1C(=O)Nc1cnccc1OCC1CCNCC1 [Example 23, 3-amino-6-(2,6-difluorophenyl)-5-fluoro-N-(4-(piperidin-4-ylmethoxy)pyridin-3-yl)picolinamide hydrochloride] | 2.5
Cl.Nc1cc(F)c(-c2c(F)cccc2F)nc1C(=O)Nc1cnccc1OC1CCNC1 (stereo not shown) [Example 24, 3-amino-6-(2,6-difluorophenyl)-5-fluoro-N-(4-(pyrrolidin-3-yloxy)pyridin-3-yl)picolinamide hydrochloride] | 2.1
Cl.Nc1cc(F)c(-c2c(F)cccc2F)nc1C(=O)Nc1cnccc1OC1CCNCC1 [Example 25, 3-amino-6-(2,6-difluorophenyl)-5-fluoro-N-(4-(piperidin-4-yloxy)pyridin-3-yl)picolinamide hydrochloride] | 3.2
Cl.Nc1cc(F)c(-c2c(F)cccc2F)nc1C(=O)Nc1cnccc1OC1CCCNCC1 (stereo not shown) [Example 26, 3-amino-N-(4-(azepan-4-yloxy)pyridin-3-yl)-6-(2,6-difluorophenyl)-5-fluoropicolinamide hydrochloride] | 4.3
Cl.Nc1cc(F)c(-c2c(F)cccc2F)nc1C(=O)Nc1cnccc1O[C@H]1CC[C@H](N)CC1 [Example 27, 3-amino-N-(4-(((1r,4r)-4-aminocyclohexyl)oxy)pyridin-3-yl)-6-(2,6-difluorophenyl)-5-fluoropicolinamide hydrochloride] | 4.5
Cl.Nc1cc(F)c(-c2c(F)cccc2F)nc1C(=O)Nc1cnccc1OCC1CCNC1 (stereo not shown) [Example 28, 3-amino-6-(2,6-difluorophenyl)-5-fluoro-N-(4-(pyrrolidin-3-ylmethoxy)pyridin-3-yl)picolinamide hydrochloride] | 2.2
NCC(CCl)Oc1ccncc1NC(=O)c1ccc(F)c(-c2c(F)cccc2F)n1 (stereo not shown) [Example 29, N-(4-((1-amino-3-chloropropan-2-yl)oxy)pyridin-5-yl)-6-(2,6-difluorophenyl)-5-fluoropicolinamide hydrochloride] | 1.8
Cl.NCC(CCl)COc1ccncc1NC(=O)c1ccc(F)c(-c2c(F)cccc2F)n1 (stereo not shown) [Example 30, N-(4-(3-amino-2-(chloromethyl)propoxy)pyridin-5-yl)-6-(2,6-difluorophenyl)-5-fluoropicolinamide hydrochloride] | 1.6
Cl.Nc1cc(F)c(-c2c(F)cccc2F)nc1C(=O)Nc1cnccc1OC1CNC1 [Example 31, 3-amino-N-(4-(azetidin-3-yloxy)pyridin-3-yl)-6-(2,6-difluorophenyl)-5-fluoropicolinamide hydrochloride] | 1.1
Cl.Nc1cc(F)c(-c2c(F)cccc2F)nc1C(=O)Nc1cnccc1OCC1CNC1 [Example 32, 3-amino-N-(4-(azetidin-3-ylmethoxy)pyridin-3-yl)-6-(2,6-difluorophenyl)-5-fluoropicolinamide hydrochloride] | 1.2
Cl.NCC(CCl)Oc1ccncc1NC(=O)c1nc(-c2c(F)cccc2F)c(F)cc1N (stereo not shown) [Example 33, 3-amino-N-(4-((1-amino-3-chloropropan-2-yl)oxy)pyridin-3-yl)-6-(2,6-difluorophenyl)-5-fluoropicolinamide hydrochloride] | 2.1
